According to BigSolDB 2.1:

Details: in water

solubility (mole fraction) (285.15 K) | solubility (mole fraction) (292.15 K) | solubility (mole fraction) (298.15 K) | solubility (mole fraction) (306.15 K) | solubility (mole fraction) (313.15 K) | solubility (mole fraction) (320.15 K) | solubility (mole fraction) (327.15 K) | solubility (mole fraction) (333.15 K) | solubility (mole fraction) (339.15 K) | solubility (mole fraction) (344.15 K) | solubility (mole fraction) (348.15 K) | Structure (SMILES)
0.087 | 0.103 | 0.117 | 0.137 | 0.153 | 0.172 | 0.188 | 0.2 | 0.211 | 0.218 | 0.222 | O=C(O)c1ccc([N+](=O)[O-])cc1C(=O)O
0.000774 | 0.000984 | 0.00141 | 0.00189 | 0.0026 | 0.00352 | 0.00467 | 0.00581 | 0.00713 | 0.00847 | 0.00955 | O=C(O)c1cccc([N+](=O)[O-])c1C(=O)O
